According to ChEMBL document CHEMBL1201862, “PubChem BioAssay data set” (2004):
Where a name gives a salt, the structure may show the parent alone.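 Results reflect a 48-hour exposure of cells in 96-well plates to compound at five concentrations. GI50 is the concentration that inhibits growth by half.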 The source made the active and inactive calls. Rule as the data show it: active = GI50 up to about 1.1 µM and inactive = higher.

What was measured:
Experiment in all cases: inhibition of tumour cell growth, NCI panel, 48 h
[1] = tested on: HL-60
[2] = tested on: A498
[3] = tested on: OVCAR-3
[4] = tested on: IGROV-1
[5] = tested on: LOX IMVI
[6] = tested on: NCI-H23
[7] = tested on: UACC-257
[8] = tested on: NCI/ADR-RES
[9] = tested on: SK-MEL-2
[10] = tested on: UACC-62
[11] = tested on: Malme-3M
[12] = tested on: BT-549
[13] = tested on: T47D
[14] = tested on: MDA-MB-231
[15] = tested on: OVCAR-5
[16] = tested on: UO-31
[17] = tested on: PC-3
[18] = tested on: SNB-19
[19] = tested on: COLO 205
[20] = tested on: DU-145

SMILES	GI50 [1]	GI50 [2]	GI50 [3]	GI50 [4]	GI50 [5]	GI50 [6]	GI50 [7]	GI50 [8]	GI50 [9]	GI50 [10]	GI50 [11]	GI50 [12]	GI50 [13]	GI50 [14]	GI50 [15]	GI50 [16]	GI50 [17]	GI50 [18]	GI50 [19]	GI50 [20]
Oc1cccc(Nc2cc(O)nc(O)n2)c1	> 100 µM (inactive)	> 100 µM (inactive)	> 100 µM (inactive)	> 100 µM (inactive)	> 100 µM (inactive)	> 100 µM (inactive)	> 100 µM (inactive)	> 100 µM (inactive)	> 100 µM (inactive)	> 100 µM (inactive)	> 100 µM (inactive)	> 100 µM (inactive)	> 100 µM (inactive)	> 100 µM (inactive)	> 100 µM (inactive)	> 100 µM (inactive)	> 100 µM (inactive)	> 100 µM (inactive)	> 100 µM (inactive)	
COc1ccc(/C=N/NC(=O)c2cnc3[nH]c(=O)n(C)c(=O)c3c2)cc1			> 100 µM (inactive)	34.9 µM (inactive)		> 100 µM (inactive)	> 100 µM (inactive)	97.3 µM (inactive)	44.3 µM (inactive)	80.2 µM (inactive)	> 100 µM (inactive)	> 100 µM (inactive)	> 100 µM (inactive)	27 µM (inactive)	> 100 µM (inactive)	> 100 µM (inactive)	> 100 µM (inactive)	34.1 µM (inactive)	> 100 µM (inactive)	> 100 µM (inactive)
CCOC(=O)C12C3CCC1C2C(=O)C3 (stereo not drawn)			> 100 µM (inactive)	> 100 µM (inactive)	> 100 µM (inactive)	> 100 µM (inactive)	> 100 µM (inactive)	> 100 µM (inactive)	> 100 µM (inactive)	> 100 µM (inactive)	> 100 µM (inactive)	> 100 µM (inactive)		> 100 µM (inactive)	> 100 µM (inactive)	> 100 µM (inactive)	> 100 µM (inactive)	> 100 µM (inactive)	> 100 µM (inactive)	> 100 µM (inactive)
N#CC12C(=O)NC(=O)C1(C#N)C1C=CC2CC1 (stereo not drawn)	> 100 µM (inactive)		> 100 µM (inactive)		> 100 µM (inactive)	> 100 µM (inactive)	> 100 µM (inactive)	> 100 µM (inactive)		> 100 µM (inactive)	> 100 µM (inactive)	> 100 µM (inactive)	> 100 µM (inactive)		> 100 µM (inactive)	> 100 µM (inactive)	> 100 µM (inactive)	> 100 µM (inactive)	> 100 µM (inactive)	> 100 µM (inactive)
O=C1Oc2ccccc2C(=O)/C1=C/N1C(=O)N/C(=C\c2cccc(O)c2)C1=O	6.87 µM (inactive)		> 100 µM (inactive)	31.3 µM (inactive)	> 100 µM (inactive)	84.9 µM (inactive)	> 100 µM (inactive)	> 100 µM (inactive)	46.2 µM (inactive)			21.8 µM (inactive)	54.2 µM (inactive)	62.4 µM (inactive)	> 100 µM (inactive)	29.5 µM (inactive)	54.3 µM (inactive)	45.3 µM (inactive)	> 100 µM (inactive)	72.9 µM (inactive)
Cc1c(NC(=S)Nc2ccc([N+](=O)[O-])cc2)c(=O)n(-c2ccccc2)n1C	> 100 µM (inactive)	> 100 µM (inactive)	> 100 µM (inactive)	> 100 µM (inactive)	> 100 µM (inactive)	> 100 µM (inactive)	> 100 µM (inactive)	> 100 µM (inactive)		> 100 µM (inactive)	> 100 µM (inactive)	> 100 µM (inactive)		> 100 µM (inactive)	> 100 µM (inactive)	> 100 µM (inactive)	> 100 µM (inactive)	> 100 µM (inactive)	> 100 µM (inactive)	> 100 µM (inactive)
CC(=O)Oc1ccc2c(c1)[nH]c1c3ccc(OC(C)=O)cc3oc(=O)c21			24.8 µM (inactive)	39 µM (inactive)		36.1 µM (inactive)	43.2 µM (inactive)	> 100 µM (inactive)		28.1 µM (inactive)	32.8 µM (inactive)	23.9 µM (inactive)	20.4 µM (inactive)	29.2 µM (inactive)	> 100 µM (inactive)	27.8 µM (inactive)	24.5 µM (inactive)	23.9 µM (inactive)	30.7 µM (inactive)	33.3 µM (inactive)
N#Cc1nc(Cc2ccccc2)oc1N			> 100 µM (inactive)	> 100 µM (inactive)	> 100 µM (inactive)	> 100 µM (inactive)	> 100 µM (inactive)		> 100 µM (inactive)		> 100 µM (inactive)	> 100 µM (inactive)	> 100 µM (inactive)	> 100 µM (inactive)	> 100 µM (inactive)	> 100 µM (inactive)	> 100 µM (inactive)	38.7 µM (inactive)	> 100 µM (inactive)	> 100 µM (inactive)
CCC1C(=O)C(O)[C@H]2[C@@H]3C(O)CC4=CC(=O)CC[C@]4(C)[C@H]3CC[C@]12C (stereo partly drawn)	> 50 µM (inactive)	> 50 µM (inactive)	> 50 µM (inactive)	> 50 µM (inactive)	> 50 µM (inactive)	> 50 µM (inactive)	> 50 µM (inactive)	> 50 µM (inactive)	> 50 µM (inactive)	> 50 µM (inactive)	> 50 µM (inactive)		> 50 µM (inactive)	> 50 µM (inactive)	> 50 µM (inactive)	> 50 µM (inactive)	> 50 µM (inactive)	> 50 µM (inactive)	> 50 µM (inactive)	> 50 µM (inactive)
CCOC(=O)C(=O)/C(=C\NC(=S)Nc1ccccc1Cl)C(=O)OCC	> 100 µM (inactive)	> 100 µM (inactive)	> 100 µM (inactive)	> 100 µM (inactive)	> 100 µM (inactive)	> 100 µM (inactive)	> 100 µM (inactive)	> 100 µM (inactive)	> 100 µM (inactive)	> 100 µM (inactive)	> 100 µM (inactive)		> 100 µM (inactive)	> 100 µM (inactive)	> 100 µM (inactive)	> 100 µM (inactive)	> 100 µM (inactive)	> 100 µM (inactive)	> 100 µM (inactive)	> 100 µM (inactive)
CC[C@@]1(C[C@H]2C[C@@]3(C(=O)OC)c4[nH]c5ccccc5c4CCN3C2=S)COC2(CCCCC2)O1	4.06 µM (inactive)	88.7 µM (inactive)	55.7 µM (inactive)	61.7 µM (inactive)	78 µM (inactive)	21.4 µM (inactive)	26.5 µM (inactive)	57 µM (inactive)	> 100 µM (inactive)	11.3 µM (inactive)	> 100 µM (inactive)	4.72 µM (inactive)	26.2 µM (inactive)		> 100 µM (inactive)	7.78 µM (inactive)	4.97 µM (inactive)	38.5 µM (inactive)	7.41 µM (inactive)	> 100 µM (inactive)
Cc1ccc(C)c(NC(=O)C(=O)C2C(=O)C3=C(CC2(C)C)Nc2ccccc2S3)c1 (stereo not drawn)	> 100 µM (inactive)		55.6 µM (inactive)	69.7 µM (inactive)	> 100 µM (inactive)	> 100 µM (inactive)	> 100 µM (inactive)	65.2 µM (inactive)	> 100 µM (inactive)	> 100 µM (inactive)		> 100 µM (inactive)		97.1 µM (inactive)	> 100 µM (inactive)	53.8 µM (inactive)	> 100 µM (inactive)	> 100 µM (inactive)	> 100 µM (inactive)	93.5 µM (inactive)
COC[C@@H](C[C@H]1O[C@@](O)([C@H](O)[C@@H]2C[C@H](OC)[C@@H](O)CC/C=C(C)/C=C/[C@@H](O[C@@H]3O[C@@H](C)[C@H](OC)[C@@H](O)[C@@H]3O)[C@H](C)/C=C(C)/C=C(C)/C=C(\C)C(=O)O2)[C@H](C)[C@@H](O)[C@H]1C)O[C@H]1C[C@](C)(O)[C@@H](O[C@H]2C[C@@H](OC)[C@H](O)[C@@H](C)O2)C(C)O1 (stereo partly drawn)	0.869 µM (active)		63.1 µM (inactive)	> 100 µM (inactive)	46.5 µM (inactive)	0.0532 µM (active)	0.0374 µM (active)	> 100 µM (inactive)	> 55 µM (inactive)	> 100 µM (inactive)		> 92.3 µM (inactive)	0.188 µM (active)	> 100 µM (inactive)	> 100 µM (inactive)	> 100 µM (inactive)	0.0447 µM (active)		0.221 µM (active)	> 61.8 µM (inactive)
CC1=C(CO)C2=C(C)C3(CC3)[C@@](C)(O)C(=O)C2=C1 [IROFULVEN]	0.237 µM (active)	0.179 µM (active)	0.26 µM (active)	0.149 µM (active)	0.582 µM (active)	0.0877 µM (active)	0.227 µM (active)	0.241 µM (active)	0.196 µM (active)		0.218 µM (active)		0.218 µM (active)	0.303 µM (active)	0.174 µM (active)	0.19 µM (active)	0.267 µM (active)	0.348 µM (active)	0.166 µM (active)	0.0929 µM (active)
NCCCNCCCCNCCCN [SPERMINE TETRAHYDROCHLORIDE]	4.26 µM (inactive)	> 100 µM (inactive)		13.2 µM (inactive)	8.11 µM (inactive)	67 µM (inactive)	> 71.1 µM (inactive)	44.6 µM (inactive)	> 100 µM (inactive)	> 100 µM (inactive)	93.1 µM (inactive)		2.36 µM (inactive)	> 43.6 µM (inactive)	> 100 µM (inactive)	2.23 µM (inactive)	> 100 µM (inactive)	> 100 µM (inactive)	4.67 µM (inactive)	10.6 µM (inactive)
